Here are results for five compounds from patent US20250002954A1, “Novel Compound, Use Thereof, and Method for Producing Same, and Compound-Containing Composition, Method for Producing 4-Trehalosamine, and Microorganism” (Microbial Chemistry Research Foundation, priority 2021, published 2025).

Assay [1] relates to baker's yeast (Saccharomyces cerevisiae F-7). The assay is described as follows: Evaluation of baker's yeast protective activity in freeze-dried condition. The format is cell-based. As to conditions: for Numbers of live bacterial cells (relative numbers): baker's yeast freeze-dried with 6% aqueous solution (final concentration 3%), test sample 3 (FD) = 1. As to the method:
Using test samples 1 to 8 containing baker's yeast prepared in the following manner, microorganism-protective activity with various kinds of sugar in a freeze-dried condition was evaluated.
Frozen stock of baker's yeast (Saccharomyces cerevisiae F-7, owned by the Microbial Chemistry Research Foundation) was inoculated in 10 mL of YPD culture fluid (1% yeast extract, 2% polypeptone, 2% glucose) and cultured at 27° C. for 2 days while shaking it at 220 rpm. After culture, it was centrifuged at 1,000×g for 5 minutes, washed once with 10 mL of water, and then suspended in 10 mL of water, thus obtaining yeast suspension. 50 μL of water was added to and mixed with 50 μL of this yeast suspension and the mixture was left to stand at 4° C. for 12 hours, preparing control (NF).
After yeast suspension was prepared in a similar manner to test sample 1, 50 µL of 6% aqueous solution of trehalose was added to and mixed with 50 μL of the yeast suspension, and the mixture was frozen at −80° C. for 1 hour. It was then freeze-dried for 12 hours with a freeze dryer (FLEXI-DRY, manufactured by FTS systems INC., Warminster) connected to a vacuum pump (P65D, manufactured by PHIL Sato Vac INC.), preparing freeze-dried product (TRH) of yeast with TRH.
Freeze-dried product (4TA) of yeast with 4TA was obtained in a similar manner to the preparation method of test sample 4 except that trehalose was changed to 4-trehalosamine (4TA) in the preparation method of test sample 4.
Freeze-dried product (MLT) of yeast with MLT was obtained in a similar manner to the preparation method of test sample 4 except that trehalose was changed to maltose (MLT) in the preparation method of test sample 4.
Freeze-dried product (SCR) of yeast with SCR was obtained in a similar manner to the preparation method of test sample 4 except that trehalose was changed to sucrose (SCR) in the preparation method of test sample 4.
Freeze-dried product (GOL) of yeast with GOL was obtained in a similar manner to the preparation method of test sample 4 except that trehalose was changed to glycerol (GOL) in the preparation method of test sample 4.
For test samples 1 and 2, serial suspensions were made by diluting them to 1/10 with saline. 100 μL of water was added to each of the freeze-dried products of test samples 3 to 8 and diluted to 1/10 with saline to make their serial suspensions. 60 μL of water was added to 30 μL of each diluted solution.
In a 6-well microplate, 2% Agar-YPD was prepared at 3 mL/well, and 90 μL of each diluted solution was inoculated on the 2% Agar-YPD and cultured at 30° C. for two days.
(§1) Wells in which the number of colonies was measurable were selected and the numbers (relative numbers) of live bacterial cells per well on test samples 1, 2, and 4 to 8 when the number of live bacterial cells per well on test sample 3 (FD) was “1” were calculated in consideration of the dilution concentrations of those test samples.

The next assay relates to Escherichia coli K-12. The assay is described as follows: Evaluation of Escherichia coli protective activity in freeze-dried condition. Conditions: for Numbers of live bacterial cells (relative numbers): Escherichia coli freeze-dried with 6% aqueous solution (final concentration 3%), test sample 3 (FD) = 1. The format is cell-based. As to the method:
Using test samples 1 to 8 containing Escherichia coli prepared in the following manner, microorganism-protective activity with various kinds of sugar in a freeze-dried condition was evaluated.
Frozen stock of Escherichia coli (Escherichia coli K-12, owned by the Microbial Chemistry Research Foundation) was inoculated in 10 mL of Luria-Bertani (LB) culture medium (manufactured by Difco) and cultured at 37° C. for 24 hours while shaking it at 220 rpm. After culture, it was centrifuged at 3,000×g for 5 minutes, washed once with 10 mL of water, and then suspended in 10 mL of water, thus obtaining Escherichia coli suspension. 50 μL of water was added to and mixed with 50 μL of this Escherichia coli suspension and the mixture was left to stand at 4° C. for 12 hours, preparing control (NF).
After Escherichia coli suspension was prepared in a similar manner to test sample 1, 50 μL of 6% aqueous solution of trehalose was added to and mixed with 50 μL of the Escherichia coli suspension, and the mixture was frozen at −80° C. for 1 hour. It was then freeze-dried for 12 hours with a freeze dryer (FLEXI-DRY, manufactured by FTS systems INC., Warminster) connected to a vacuum pump (P65D, manufactured by PHIL Sato Vac INC.), preparing freeze-dried product (TRH) of Escherichia coli with TRH.
Freeze-dried product (4TA) of Escherichia coli with 4TA was obtained in a similar manner to the preparation method of test sample 4 except that trehalose was changed to 4-trehalosamine (4TA) in the preparation method of test sample 4.
Freeze-dried product (MLT) of Escherichia coli with MLT was obtained in a similar manner to the preparation method of test sample 4 except that trehalose was changed to maltose (MLT) in the preparation method of test sample 4.
Freeze-dried product (SCR) of Escherichia coli with SCR was obtained in a similar manner to the preparation method of test sample 4 except that trehalose was changed to sucrose (SCR) in the preparation method of test sample 4.
Freeze-dried product (GOL) of Escherichia coli with GOL was obtained in a similar manner to the preparation method of test sample 4 except that trehalose was changed to glycerol (GOL) in the preparation method of test sample 4.
For test samples 1 and 2, serial suspensions were made by diluting them to 1/10 with water. 100 μL of water was added to each of the freeze-dried products of test samples 3 to 8 and diluted to 1/10 with water to make their serial suspensions. 80 μL of water was added to 10 μL of each diluted solution.
In a 6-well microplate, 2% Agar-LB was prepared at 3 mL/well, and 90 μL of each diluted solution was inoculated on the 2% Agar-LB and cultured at 37° C. for 24 hours.
as §1

For the compound `OC[C@H]1O[C@H](O[C@H]2O[C@H](CO)[C@@H](O)[C@H](O)[C@H]2O)[C@H](O)[C@@H](O)[C@@H]1O` [trehalose, reference compound], the “Numbers of live bacterial cells (relative numbers)” value (“Numbers … (relative numbers)” for short) is listed as 100 in assay [1] and 10 with Escherichia coli K-12.
As to `OCC(O)CO` [GOL, glycerol], the “Numbers … (relative numbers)” value (in assay [1]; in the assay with Escherichia coli K-12) was 0 in each case.
Turning to `OC[C@H]1O[C@@](CO)(O[C@H]2O[C@H](CO)[C@@H](O)[C@H](O)[C@H]2O)[C@@H](O)[C@@H]1O` [sucrose], the “Numbers … (relative numbers)” value in assay [1] is reported as 10; with Escherichia coli K-12 it was 100.
Regarding `N[C@H]1[C@H](O)[C@@H](O)[C@@H](O[C@H]2O[C@H](CO)[C@@H](O)[C@H](O)[C@H]2O)O[C@@H]1CO` [4-trehalosamine], the “Numbers … (relative numbers)” value (in assay [1]; with Escherichia coli K-12) was 100 in each case. Further, the “protective effect on microorganisms, comparison” value is “stronger than when maltose or sucrose was added” in assay [1] (baker's yeast, freeze-dried) and “stronger than when the other sugars were added” in the assay on Escherichia coli K-12 (Escherichia coli, freeze-dried).
For the compound `OC[C@H]1O[C@H](O[C@H]2[C@H](O)[C@@H](O)C(O)O[C@@H]2CO)[C@H](O)[C@@H](O)[C@@H]1O` (mixture of isomers) [maltose], the “Numbers … (relative numbers)” value (in assay [1]; with Escherichia coli K-12) was 10 in each case.
